Data as given in US10750743B2, “Pyridazinone herbicides” (E.I. DU PONT DE NEMOURS AND COMPANY, priority 2015, dated 2020).

How the values were obtained:
Format in all cases: in vivo
[1] = system: barnyardgrass (Echinochloa crus-galli); assay: Test A preemergence, directed soil spray, visual injury rating; conditions: Echinochloa crus-galli, pre-emergence, 240 h, 0 is no effect, 100 is complete control, read-out: Plant response rating (0 to 100 scale), Barnyardgrass; for pest or weed control at 125 g/ha: 125 g ai/ha; for pest or weed control at 500 g/ha: 500 g ai/ha
In short: (§1)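 Seeds sown in a loam soil–sand blend received a directed preemergence soil spray of test chemical in a non-phytotoxic solvent mixture with surfactant. Postemergence plants were sprayed at 2 to 10 cm, one- to two-leaf stage. After approximately 10 d in greenhouse, injury was visually rated 0 (no effect) to 100 (complete control) against untreated controls.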

[2] = system: foxtail, giant (giant foxtail, Setaria faberii); assay: as above; conditions: Setaria faberi, pre-emergence, 240 h, 0 is no effect, 100 is complete control, read-out: Plant response rating (0 to 100 scale), Foxtail, Giant; for pest or weed control at 125 g/ha: 125 g ai/ha; for pest or weed control at 500 g/ha: 500 g ai/ha
In short: as §1

[3] = system: kochia (Kochia scoparia); assay: as above; conditions: Bassia scoparia, pre-emergence, 240 h, 0 is no effect, 100 is complete control, read-out: Plant response rating (0 to 100 scale), Kochia; for pest or weed control at 125 g/ha: 125 g ai/ha; for pest or weed control at 500 g/ha: 500 g ai/ha
In short: as §1

[4] = system: pigweed (Amaranthus retroflexus); assay: as above; conditions: Amaranthus retroflexus, pre-emergence, 240 h, 0 is no effect, 100 is complete control, read-out: Plant response rating (0 to 100 scale), Pigweed; for pest or weed control at 125 g/ha: 125 g ai/ha; for pest or weed control at 500 g/ha: 500 g ai/ha
In short: as §1

[5] = system: ragweed (common ragweed, Ambrosia elatior); assay: as above; conditions: Ambrosia artemisiifolia, pre-emergence, 240 h, 0 is no effect, 100 is complete control, read-out: Plant response rating (0 to 100 scale), Ragweed; for pest or weed control at 125 g/ha: 125 g ai/ha; for pest or weed control at 500 g/ha: 500 g ai/ha
In short: as §1

[6] = system: ryegrass, It. (Italian ryegrass, Lolium multiflorum); assay: as above; conditions: Lolium multiflorum, pre-emergence, 240 h, 0 is no effect, 100 is complete control, read-out: Plant response rating (0 to 100 scale), Ryegrass, It.; for pest or weed control at 125 g/ha: 125 g ai/ha; for pest or weed control at 500 g/ha: 500 g ai/ha
In short: as §1

[7] = system: barnyardgrass (Echinochloa crus-galli); assay: Test B flooded paddy test, visual rating; conditions: Echinochloa crus-galli, 360 h; Flood, 250 g ai/ha, applied to paddy water, rated after 13 to 15 d; read-out: Barnyardgrass plant response rating (0 to 100 scale, 0 is no effect, 100 is complete control)
In short: (§2)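 Plants at the 2-leaf stage were flooded to 3 cm above soil, and test compounds were applied directly into the paddy water, which was held at that depth throughout. After 13 to 15 d in a greenhouse, injury was rated visually against untreated controls on a 0–100 scale (0 no effect, 100 complete control).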

[8] = system: ducksalad (Heteranthera limosa); assay: Test B flooded paddy test, visual rating; conditions: Heteranthera limosa, 360 h; Flood, 250 g ai/ha, applied to paddy water, rated after 13 to 15 d; read-out: Ducksalad plant response rating (0 to 100 scale, 0 is no effect, 100 is complete control)
In short: as §2

[9] = system: sedge, umbrella (small-flower umbrella sedge, Cyperus difformis); assay: Test B flooded paddy test, visual rating; conditions: Cyperus difformis, 360 h; Flood, 250 g ai/ha, applied to paddy water, rated after 13 to 15 d; read-out: Sedge, Umbrella plant response rating (0 to 100 scale, 0 is no effect, 100 is complete control)
In short: as §2

[10] = system: barnyardgrass (Echinochloa crus-galli); assay: Test A postemergence application, visual injury rating; conditions: Echinochloa crus-galli, post-emergence, 240 h, 0 to 100 scale, 0 no effect, 100 complete control, read-out: Barnyardgrass plant response rating; for pest or weed control at 125 g/ha: 125 g ai/ha; for pest or weed control at 500 g/ha: 500 g ai/ha
In short: as §1

[11] = system: blackgrass (Alopecurus myosuroides); assay: as above; conditions: Alopecurus myosuroides, post-emergence, 240 h, 0 to 100 scale, 0 no effect, 100 complete control, read-out: Blackgrass plant response rating; for pest or weed control at 125 g/ha: 125 g ai/ha; for pest or weed control at 500 g/ha: 500 g ai/ha
In short: as §1

[12] = system: corn (Zea mays); assay: as above; conditions: Zea mays, post-emergence, 240 h, 0 to 100 scale, 0 no effect, 100 complete control, read-out: Corn plant response rating; for plant injury at 125 g/ha: 125 g ai/ha; for plant injury at 500 g/ha: 500 g ai/ha
In short: as §1

[13] = system: foxtail, giant (giant foxtail, Setaria faberii); assay: as above; conditions: Setaria faberi, post-emergence, 240 h, 0 to 100 scale, 0 no effect, 100 complete control, read-out: Foxtail, Giant plant response rating; for pest or weed control at 125 g/ha: 125 g ai/ha; for pest or weed control at 500 g/ha: 500 g ai/ha
In short: as §1

[14] = system: galium (catchweed bedstraw, Galium aparine); assay: as above; conditions: Galium, post-emergence, 240 h, 0 to 100 scale, 0 no effect, 100 complete control, read-out: Galium plant response rating; for pest or weed control at 125 g/ha: 125 g ai/ha; for pest or weed control at 500 g/ha: 500 g ai/ha
In short: as §1

[15] = system: kochia (Kochia scoparia); assay: as above; conditions: Bassia scoparia, post-emergence, 240 h, 0 to 100 scale, 0 no effect, 100 complete control, read-out: Kochia plant response rating; for pest or weed control at 125 g/ha: 125 g ai/ha; for pest or weed control at 500 g/ha: 500 g ai/ha
In short: as §1

[16] = system: pigweed (Amaranthus retroflexus); assay: as above; conditions: Amaranthus retroflexus, post-emergence, 240 h, 0 to 100 scale, 0 no effect, 100 complete control, read-out: Pigweed plant response rating; for pest or weed control at 125 g/ha: 125 g ai/ha; for pest or weed control at 500 g/ha: 500 g ai/ha
In short: as §1

[17] = system: ragweed (common ragweed, Ambrosia elatior); assay: as above; conditions: Ambrosia artemisiifolia, post-emergence, 240 h, 0 to 100 scale, 0 no effect, 100 complete control, read-out: Ragweed plant response rating; for pest or weed control at 125 g/ha: 125 g ai/ha; for pest or weed control at 500 g/ha: 500 g ai/ha
In short: as §1

[18] = system: ryegrass, It. (Italian ryegrass, Lolium multiflorum); assay: as above; conditions: Lolium multiflorum, post-emergence, 240 h, 0 to 100 scale, 0 no effect, 100 complete control, read-out: Ryegrass, It. plant response rating; for pest or weed control at 125 g/ha: 125 g ai/ha; for pest or weed control at 500 g/ha: 500 g ai/ha
In short: as §1

[19] = system: wheat (Triticum aestivum); assay: as above; conditions: Triticum aestivum, post-emergence, 240 h, 0 to 100 scale, 0 no effect, 100 complete control, read-out: Wheat plant response rating; for plant injury at 125 g/ha: 125 g ai/ha; for plant injury at 500 g/ha: 500 g ai/ha
In short: as §1

Structure (SMILES)	pest or weed control at 125 g/ha [1] [%]	pest or weed control at 500 g/ha [1] [%]	pest or weed control at 125 g/ha [2] [%]	pest or weed control at 500 g/ha [2] [%]	pest or weed control at 125 g/ha [3] [%]	pest or weed control at 500 g/ha [3] [%]	pest or weed control at 125 g/ha [4] [%]	pest or weed control at 500 g/ha [4] [%]	pest or weed control at 125 g/ha [5] [%]	pest or weed control at 500 g/ha [5] [%]	pest or weed control at 125 g/ha [6] [%]	pest or weed control at 500 g/ha [6] [%]	pest or weed control at 250 g/ha [7] [%]	pest or weed control at 250 g/ha [8] [%]	pest or weed control at 250 g/ha [9] [%]	pest or weed control at 125 g/ha [10] [%]	pest or weed control at 500 g/ha [10] [%]	pest or weed control at 125 g/ha [11] [%]	pest or weed control at 500 g/ha [11] [%]	plant injury at 125 g/ha [12] [%]	other results
Cc1nn(C)c(=O)c(-c2cccc3snc(C)c23)c1O [Compound 25, 5-hydroxy-2,6-dimethyl-4-(3-methyl-1,2-benzisothiazol-4-yl)-3 (2H)-pyridazinone]	0	40	30	80	100	100	80	100	40	70	0	30	0	0	0	20	40	20	30	0	plant injury at 500 g/ha [12]: 20%; pest or weed control at 125 g/ha [13]: 30%; pest or weed control at 500 g/ha [13]: 80%; pest or weed control at 125 g/ha [14]: 80%; pest or weed control at 500 g/ha [14]: 90%; pest or weed control at 125 g/ha [15]: 100%; pest or weed control at 500 g/ha [15]: 100%; pest or weed control at 125 g/ha [16]: 90%; pest or weed control at 500 g/ha [16]: 90%; pest or weed control at 125 g/ha [17]: 70%; pest or weed control at 500 g/ha [17]: 90%; pest or weed control at 125 g/ha [18]: 20%; pest or weed control at 500 g/ha [18]: 70%; plant injury at 125 g/ha [19]: 20%; plant injury at 500 g/ha [19]: 30%
Cc1ccc2sccc2c1-c1c(O)c(C)nn(C)c1=O [Compound 29, 5-hydroxy-2,6-dimethyl-4-(5-methylbenzo[b]thien-4-yl)-3(2H)-pyridazinone]	10	90	10	90	20	90	40	100	30	90	90	100	0	0	0	20	70	70	80	20	plant injury at 500 g/ha [12]: 50%; pest or weed control at 125 g/ha [13]: 20%; pest or weed control at 500 g/ha [13]: 80%; pest or weed control at 125 g/ha [14]: 90%; pest or weed control at 500 g/ha [14]: 100%; pest or weed control at 125 g/ha [15]: 90%; pest or weed control at 500 g/ha [15]: 100%; pest or weed control at 125 g/ha [16]: 90%; pest or weed control at 500 g/ha [16]: 100%; pest or weed control at 125 g/ha [17]: 80%; pest or weed control at 500 g/ha [17]: 80%; pest or weed control at 125 g/ha [18]: 100%; pest or weed control at 500 g/ha [18]: 90%; plant injury at 125 g/ha [19]: 20%; plant injury at 500 g/ha [19]: 30%
